Experimental data reported in patent publication US8163804B2 (priority 2005, dated 2012).
Where two headings read alike, the source gives them in different places.

Legend:
[1] = test system: Rice Leafroller (Cnaphalocrocis medinalis); assay: Control test on rice leafroller, nursery box application of paddy rice, infected leaf rate after 50 days; type: in vivo; conditions: 50 days after transplantation
Procedure: (§1) Control Test on Small Brown Planthopper (Laodelphax striatellus) and Rice Leafroller (Cnaphalocrocis medinalis) on Nursery Box Application of Paddy Rice
(§2) Rice (cultivar: Nihonbare) cultured in a nursery box was treated with 50 g of a granule formulation per box, and then transplanted to the rice field. For the control effect against Laodelphax striatellus, the number of parasitic insects was examined for 30 stumps per plot after 40 days and 60 days from the transplantation. In addition, for the control effect against Cnaphalocrocis medinalis, the number of infected leaves was examined for 100 stumps per plot after 50 days from the transplantation, and the infected leaf rate was calculated. In the Table, gai represents the amount of active ingredients (g).

[2] = test system: Small Brown Planthopper (Laodelphax striatellus); assay: Control test on small brown planthopper, nursery box application of paddy rice, number of parasitic insects after 40 and 60 days; type: in vivo
Procedure: as §1, §2

[3] = test system: Rice Striped Stem Borer (Chilo suppressalis)
[4] = test system: Rice Blast (Pyricularia oryzae); type: in vivo
[5] = test system: Green Peach Aphid (Myzus persicae); type: in vivo
[6] = test system: Resistant Cotton Melon Aphid (Aphis gossypii); type: in vivo
[7] = test system: Small Brown Planthopper (Laodelphax striatellus); assay: Insecticidal test on small brown planthopper, sprayed rice seedlings, mortality after 6 days; type: in vivo
Procedure: Insecticidal Test on Small Brown Planthopper (Laodelphax striatellus)
A liquid chemical which was diluted and prepared to the prescribed concentration was sprayed on rice seedlings (cultivar: koshihikari), air-dried, and then 10 three-stage insects of Laodelphax striatellus were put into a glass test tube having a diameter of 3 cm and a height of 10 cm along with the seedlings. The test tube was cotton plugged. After 6 days from the treatment, the number of surviving insects was examined and the mortality was calculated (two replications of 10 insects per plot).

[8] = test system: 2-spotted Spider Mite (Tetranychus urticae); assay: Insecticidal test on 2-spotted spider mite, kidney bean leaf disc with eggs, hatchability of larvae after 6 days; type: in vivo; conditions: 6 days after spraying
Procedure: Insecticidal Test on 2-spotted Spider Mite (Tetranychus urticae)
A plastic cup having a diameter of 8 cm was filled with water and covered by a lid with a hole having a diameter of 1 cm. Absorbent cotton was put on the top of the lid and dropped into water from the lid such that the absorbent cotton was always in a wet state due to a capillary phenomenon. A leaf disc having a diameter of 2 cm was prepared with primary leaves of kidney beans (cultivar: Green top) and placed on the aforementioned absorbent cotton. 4 adult female insects of Tetranychus urticae were inoculated thereon. Next day, the adult female insects were removed, and then the number of insect egg was examined. A liquid chemical which was prepared to the prescribed concentration was sprayed by using a vertical sprayer. After spraying, the resulting cup was allowed to stand in an isothermal chamber maintained at 25 degree centigrade. After 6 days from spraying, the number of hatched larvae that survived on the leaf disc was examined and the hatchability of larvae was calculated (two replications of one concentration per chemical).

[9] = test system: Tiger Moth (Trichoplusia ni); assay: Insecticidal test on tiger moth, cabbage leaf dip, mortality after 6 days; type: in vivo; conditions: 6 days after treatment
Procedure: Insecticidal Test on Tiger Moth (Trichoplusia ni)
Cut leaves of cabbages (cultivar: shiki-kaku) were immersed in a liquid chemical which was diluted and prepared to the prescribed concentration for 30 seconds, air-dried, and then put into a plastic vessel having a diameter of 9 cm. Each of 10 second-stage insects of Trichoplusia ni was inoculated and the resulting vessel was allowed to stand in an isothermal chamber maintained at 25 degree centigrade. After 6 days from the treatment, the number of surviving insects was examined and the mortality was calculated (two replications of 10 insects per plot).

[10] = test system: Sheath Blight (Rhizoctonia solani); assay: Control test on sheath blight of paddy rice, powder spray, rate of infected stumps after 30 days; type: in vivo; conditions: 30 days after spraying
Text: (§3) Control Test on Common Straight Swift Butterfly (Parnara guttata) and Sheath Blight (Rhizoctonia solani) of Paddy Rice
(§4) A powder of a prescribed amount was sprayed on rice (cultivar: koshihikari) after 70 days from the transplantation (middle of May) Leaves on which Parnara guttata was parasitic before spraying were eliminated. After 20 days from spraying, the number of insects was examined for 100 stumps in each plot. Furthermore, 7 days before spraying, Rhizoctonia solani cultured on a bran medium was inoculated into the base of the plant. After 30 days from spraying, the number of infected stumps was examined for 100 stumps in each plot and the rate of infected stumps was calculated. In the Table, gai represents the amount of active ingredients (g).

[11] = test system: Common Straight Swift Butterfly (Parnara guttata); assay: Control test on common straight swift butterfly of paddy rice, powder spray, number of insects after 20 days (Test Example 9); type: in vivo; conditions: 20 days after spraying
Text: as §3, §4

[12] = 3 ppm, foliar spray on eggplant, 5 days after spraying
[13] = 3 ppm, foliar spray on cucumber, 5 days after spraying
[14] = 3 ppm, sprayed rice seedlings, 6 days after treatment
[15] = 100 ppm, foliar spray on eggplant, 5 days after spraying
[16] = 100 ppm, foliar spray on cucumber, 5 days after spraying
[17] = Laodelphax striatellus, 144 h, 25 ppm, sprayed rice seedlings, 6 days after treatment
[18] = 250 ppm, foliar spray on eggplant, 5 days after spraying
[19] = 250 ppm, foliar spray on cucumber, 5 days after spraying

O=[N+]([O-])NC1=NCCN1Cc1ccc(Cl)nc1 [imidacloprid]
Cnaphalocrocis medinalis Infected leaf rate (%) ([1]; 1 gai/box): 1.77% | Laodelphax striatellus Number of parasitic insects/30 stumps ([2]; 1 gai/box, 40 days): 0 insects/30 stumps | Laodelphax striatellus Number of parasitic insects/30 stumps ([2]; 1 gai/box, 60 days): 9 insects/30 stumps

C[C@@H](NC(=O)C(C#N)C(C)(C)C)c1ccc(Cl)cc1Cl (some centres unmarked) [diclocymet]
Chilo suppressalis Mortality (%) ([3]; 1.5 gai/box): 0% | Pyricularia oryzae Control value ([4]; 1.5 gai/box): 95

CN(C(=O)c1ccccc1)c1cccc(C(=O)Nc2c(Br)cc(SC(F)(F)C(F)(F)C(F)(F)F)cc2Br)c1 [Compound 1126]
Control rate (%) [5, 12]: 0% | Control rate (%) [6, 13]: 3% | Mortality (%) [7, 14]: 10% | Hatchability of larvae (%) ([8]; 50 ppm): 73% | Mortality (%) ([9]; 0.5 ppm): 70%

C=CCOC1=NS(=O)(=O)c2ccccc21 [probenazole]
Chilo suppressalis Mortality (%) ([3]; 12 gai/box): 5% | Pyricularia oryzae Control value ([4]; 12 gai/box): 94

COc1ccc(-c2ccccc2)cc1NNC(=O)OC(C)C [bifenazate]
Hatchability of larvae (%) ([8]; 5 ppm): 60%

CNC(=O)/C(=N/OC)c1ccccc1CO/N=C(C)/C(=N/OC)C(/C)=N/OC [orysastrobin]
Chilo suppressalis Mortality (%) ([3]; 3.5 gai/box): 5% | Pyricularia oryzae Control value ([4]; 3.5 gai/box): 93

spinosad
Mortality (%) ([9]; 0.1 ppm): 60%

milbemectin
Hatchability of larvae (%) ([8]; 5 ppm): 18%

CC(C)(C)c1ccc(CSc2cnn(C(C)(C)C)c(=O)c2Cl)cc1 [pyridaben]
Hatchability of larvae (%) ([8]; 2 ppm): 48%

CC1=NNC(=O)N(/N=C/c2cccnc2)C1 [pymetrozine]
Control rate (%) [5, 15]: 96% | Control rate (%) [6, 16]: 95% | mortality at 25 ppm [7, 17]: 95%

Cc1nn(C)c(Cl)c1C(=O)Nc1cccc2c1C(C)OC2(C)C (centres unmarked) [furametpyr]
Rate of infected stumps (%) ([10]; 20 gai/10a): 2% | Number of insects (number/100 stumps) ([11]; 20 gai/10a): 161 number/100 stumps

CCOc1ccc([Si](C)(C)CCCc2ccc(F)c(Oc3ccccc3)c2)cc1 [silafluofen]
mortality at 25 ppm [7, 17]: 95%

COP(=O)(NC(C)=O)SC (centres unmarked) [acephate]
Control rate (%) [5, 18]: 97% | Control rate (%) [6, 19]: 0%

CN(C(=O)c1ccccc1F)c1cccc(C(=O)N(C)c2c(Br)cc(SC(F)(F)C(F)(F)C(F)(F)F)cc2Br)c1 [Compound 1617]
Control rate (%) [5, 12]: 0% | Control rate (%) [6, 13]: 5% | Mortality (%) [7, 14]: 5% | Hatchability of larvae (%) ([8]; 50 ppm): 78% | Mortality (%) ([9]; 0.5 ppm): 75%

CC(C)OC(=O)C(C(=O)OC(C)C)=C1SCCS1 [Isoprothiolane]
Chilo suppressalis Mortality (%) ([3]; 6 gai/box): 0% | Pyricularia oryzae Control value ([4]; 6 gai/box): 92

CCOC(=O)CCN(SN(C)C(=O)Oc1cccc2c1OC(C)(C)C2)C(C)C [benfuracarb]
Cnaphalocrocis medinalis Infected leaf rate (%) ([1]; 2.5 gai/box): 1.28% | Laodelphax striatellus Number of parasitic insects/30 stumps ([2]; 2.5 gai/box, 40 days): 12 insects/30 stumps | Laodelphax striatellus Number of parasitic insects/30 stumps ([2]; 2.5 gai/box, 60 days): 31 insects/30 stumps

Cc1cc(C(F)(C(F)(F)F)C(F)(F)F)cc(C)c1NC(=O)c1cccc(N(C)C(=O)c2ccc(C#N)cc2)c1F [Compound 1217]
Control rate (%) [5, 12]: 21% | Control rate (%) [6, 13]: 15% | Chilo suppressalis Mortality (%) ([3]; 5 gai/box): 90% | Mortality (%) [7, 14]: 15% | Hatchability of larvae (%) ([8]; 50 ppm): 74% | Mortality (%) ([9]; 0.5 ppm): 65% | Pyricularia oryzae Control value ([4]; in vivo): 7

CC[S+]([O-])c1c(C#N)nn(-c2c(Cl)cc(C(F)(F)F)cc2Cl)c1N (centres unmarked) [ethiprole]
Control rate (%) [5, 15]: 98% | Control rate (%) [6, 16]: 96% | mortality at 25 ppm [7, 17]: 90%

CC(C)N1C(=O)N(c2ccccc2)CS/C1=N\C(C)(C)C [buprofezin]
mortality at 25 ppm [7, 17]: 95%

CC(C)([CH2][Sn]([CH2]C(C)(C)c1ccccc1)([CH2]C(C)(C)c1ccccc1)[O][Sn]([CH2]C(C)(C)c1ccccc1)([CH2]C(C)(C)c1ccccc1)[CH2]C(C)(C)c1ccccc1)c1ccccc1 [fenbutatin oxide]
Hatchability of larvae (%) ([8]; 25 ppm): 42%

CNC(=O)ON=C(C)SC [methomyl]
Control rate (%) [5, 18]: 96% | Control rate (%) [6, 19]: 10%

O=C(Nc1ccccc1)N(Cc1ccc(Cl)cc1)C1CCCC1 [pencycuron]
Rate of infected stumps (%) ([10]; 60 gai/10a): 1% | Number of insects (number/100 stumps) ([11]; 60 gai/10a): 159 number/100 stumps

CCOc1ccc(C(C)(C)COCc2cccc(Oc3ccccc3)c2)cc1 [ethofenprox]
Control rate (%) [5, 15]: 98% | Control rate (%) [6, 16]: 75% | Mortality (%) ([7]; 25 ppm, sprayed rice seedlings, 6 days after treatment): 95% | Mortality (%) ([9]; 3 ppm): 45%

Cc1cc(C(F)(C(F)(F)F)C(F)(F)F)cc(C)c1NC(=O)c1cccc(N(C)C(=O)c2cccc(F)c2)c1F [Compound 1219]
Control rate (%) [5, 12]: 17% | Control rate (%) [6, 13]: 15% | Mortality (%) [7, 14]: 10% | Hatchability of larvae (%) ([8]; 50 ppm): 80% | Mortality (%) ([9]; 0.5 ppm): 65%

CCC(C)(C)C(=O)OC1=C(c2ccc(Cl)cc2Cl)C(=O)OC12CCCCC2 [spirodiclofen]
Hatchability of larvae (%) ([8]; 3 ppm): 50%

COP(=S)(OC)Oc1ccc([N+](=O)[O-])c(C)c1 [fenitrothion]
mortality at 100 ppm ([7]; Laodelphax striatellus, 144 h): 85%

Cc1cccc2sc3nncn3c12 [tricyclazole]
Chilo suppressalis Mortality (%) ([3]; in vivo): 5% | Pyricularia oryzae Control value ([4]; 2 gai/box): 95

N#Cc1nn(-c2c(Cl)cc(C(F)(F)F)cc2Cl)c(N)c1[S+]([O-])C(F)(F)F (centres unmarked) [fipronil]
mortality at 0.5 ppm ([9]; Trichoplusia, foliar, 144 h, 0.5 ppm): 55%

CN(C(=O)c1cccc(NC(=O)c2ccccc2)c1)c1c(Br)cc(SC(F)(F)C(F)(F)C(F)(F)F)cc1Br [Compound 1480]
Control rate (%) [5, 12]: 7% | Control rate (%) [6, 13]: 3% | Mortality (%) [7, 14]: 10% | Hatchability of larvae (%) ([8]; 50 ppm): 85% | Mortality (%) ([9]; 0.5 ppm): 75%

N#CCNC(=O)c1cnccc1C(F)(F)F [flonicamid]
Control rate (%) [5, 15]: 97% | Control rate (%) [6, 16]: 97% | Mortality (%) ([7]; 20 ppm, sprayed rice seedlings, 6 days after treatment): 95%

CC(C)Oc1cccc(NC(=O)c2ccccc2C(F)(F)F)c1 [flutolanil]
Rate of infected stumps (%) ([10]; 80 gai/10a): 2% | Number of insects (number/100 stumps) ([11]; 80 gai/10a): 153 number/100 stumps

Cc1cc(C(F)(C(F)(F)F)C(F)(F)F)cc(C)c1NC(=O)c1cccc(NC(=O)c2cccnc2Cl)c1 [Compound No. 106, N-(2,6-dimethyl-4-heptafluoroisopropyl)phenyl 3-[(2-chloropyridin-3-yl)carbonylamino]benzamide]
Chilo suppressalis Mortality (%) ([3]; 5 gai/box): 90% | Pyricularia oryzae Control value ([4]; in vivo): 5

Cc1c(Cl)cc(-c2ccc(=O)[nH]n2)cc1Cl [diclomezine]
Rate of infected stumps (%) ([10]; 48 gai/10a): 3% | Number of insects (number/100 stumps) ([11]; 48 gai/10a): 167 number/100 stumps

CCOc1cc(C(C)(C)C)ccc1C1COC(c2c(F)cccc2F)=N1 (centres unmarked) [etoxazol]
Hatchability of larvae (%) ([8]; 0.1 ppm): 33%

CCCCCCCCCCCCC1=C(OC(C)=O)C(=O)c2ccccc2C1=O [acequinocyl]
Hatchability of larvae (%) ([8]; 5 ppm): 29%

CN/C(=N/CC1CCOC1)N[N+](=O)[O-] (centres unmarked) [dinotefuran]
Control rate (%) ([5]; in vivo): 99% | Control rate (%) ([6]; in vivo): 98% | mortality at 5 ppm ([7]; Laodelphax striatellus, 144 h, 5 ppm, sprayed rice seedlings, 6 days after treatment): 95% | mortality at 3 ppm ([9]; Trichoplusia, foliar, 144 h, 3 ppm): 40%
